Laboratory results as given in article PMC6193938, “Characterization of a novel AICARFT inhibitor which potently elevates ZMP and has anti-tumor activity in murine models” (Scientific Reports, 2018).
Like-named read-outs stand apart in the source and are kept apart here.

Experiments:
MAPKAPK5 = target: T1, MAPKAPK5 (Homo sapiens, UniProt Q8IW41); assay: CEREP protein kinase assay; format: biochemical
T1 construct: purchased CEREP Panlabs (Eurofins)
T1 sequence (Q8IW41 1-473): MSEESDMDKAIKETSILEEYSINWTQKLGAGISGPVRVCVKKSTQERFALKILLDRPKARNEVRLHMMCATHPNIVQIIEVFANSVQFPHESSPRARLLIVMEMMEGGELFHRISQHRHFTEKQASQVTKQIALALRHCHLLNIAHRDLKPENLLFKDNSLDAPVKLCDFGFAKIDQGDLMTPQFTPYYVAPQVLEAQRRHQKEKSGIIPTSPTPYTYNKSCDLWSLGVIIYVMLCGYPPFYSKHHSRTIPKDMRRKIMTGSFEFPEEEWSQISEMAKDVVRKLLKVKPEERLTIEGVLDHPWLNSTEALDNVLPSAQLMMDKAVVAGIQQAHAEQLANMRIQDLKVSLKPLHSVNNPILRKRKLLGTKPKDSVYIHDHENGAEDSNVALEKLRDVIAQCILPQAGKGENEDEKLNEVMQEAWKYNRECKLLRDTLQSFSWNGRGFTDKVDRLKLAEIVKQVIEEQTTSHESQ

IRAK1 = target: T2, IRAK1 (Homo sapiens, UniProt P51617); assay: CEREP protein kinase assay; format: biochemical
T2 construct: purchased CEREP Panlabs (Eurofins)
T2 sequence (P51617 whole entry): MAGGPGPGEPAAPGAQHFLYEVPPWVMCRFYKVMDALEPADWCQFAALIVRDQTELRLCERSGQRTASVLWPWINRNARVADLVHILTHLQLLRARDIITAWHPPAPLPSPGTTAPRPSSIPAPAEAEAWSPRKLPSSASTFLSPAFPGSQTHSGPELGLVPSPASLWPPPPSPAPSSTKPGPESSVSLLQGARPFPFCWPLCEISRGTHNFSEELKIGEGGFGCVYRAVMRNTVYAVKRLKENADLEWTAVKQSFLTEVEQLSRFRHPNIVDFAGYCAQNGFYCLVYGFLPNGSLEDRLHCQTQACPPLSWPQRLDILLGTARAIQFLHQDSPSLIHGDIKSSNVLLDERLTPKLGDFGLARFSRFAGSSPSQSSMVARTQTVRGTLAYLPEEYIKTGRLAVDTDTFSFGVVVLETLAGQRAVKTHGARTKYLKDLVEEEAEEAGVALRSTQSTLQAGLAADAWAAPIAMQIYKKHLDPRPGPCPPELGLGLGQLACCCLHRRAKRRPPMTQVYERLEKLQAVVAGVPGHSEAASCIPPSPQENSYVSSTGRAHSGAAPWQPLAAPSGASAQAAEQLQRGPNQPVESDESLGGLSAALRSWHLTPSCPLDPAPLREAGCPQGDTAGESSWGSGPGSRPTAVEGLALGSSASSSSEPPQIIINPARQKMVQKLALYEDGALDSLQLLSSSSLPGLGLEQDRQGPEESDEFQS

NEK2 = target: T3, NEK2 (Homo sapiens, UniProt P51955); assay: CEREP protein kinase assay; format: biochemical
T3 construct: purchased CEREP Panlabs (Eurofins)
T3 sequence (P51955 1-445): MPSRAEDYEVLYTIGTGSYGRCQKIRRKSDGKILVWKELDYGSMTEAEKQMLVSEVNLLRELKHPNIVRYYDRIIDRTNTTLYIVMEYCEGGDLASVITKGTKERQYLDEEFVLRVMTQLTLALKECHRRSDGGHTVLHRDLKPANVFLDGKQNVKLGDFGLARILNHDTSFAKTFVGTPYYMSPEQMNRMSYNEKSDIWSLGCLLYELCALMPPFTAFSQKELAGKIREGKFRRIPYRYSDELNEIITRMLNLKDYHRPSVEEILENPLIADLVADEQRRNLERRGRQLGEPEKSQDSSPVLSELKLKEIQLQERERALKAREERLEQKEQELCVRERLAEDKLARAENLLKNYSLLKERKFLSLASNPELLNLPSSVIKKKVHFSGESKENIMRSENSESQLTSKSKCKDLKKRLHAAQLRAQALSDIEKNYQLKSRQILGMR

TRKA = target: T4, TRKA (Homo sapiens, UniProt P04629); assay: CEREP protein kinase assay; format: biochemical
T4 construct: purchased CEREP Panlabs (Eurofins)
T4 sequence (P04629 33-796): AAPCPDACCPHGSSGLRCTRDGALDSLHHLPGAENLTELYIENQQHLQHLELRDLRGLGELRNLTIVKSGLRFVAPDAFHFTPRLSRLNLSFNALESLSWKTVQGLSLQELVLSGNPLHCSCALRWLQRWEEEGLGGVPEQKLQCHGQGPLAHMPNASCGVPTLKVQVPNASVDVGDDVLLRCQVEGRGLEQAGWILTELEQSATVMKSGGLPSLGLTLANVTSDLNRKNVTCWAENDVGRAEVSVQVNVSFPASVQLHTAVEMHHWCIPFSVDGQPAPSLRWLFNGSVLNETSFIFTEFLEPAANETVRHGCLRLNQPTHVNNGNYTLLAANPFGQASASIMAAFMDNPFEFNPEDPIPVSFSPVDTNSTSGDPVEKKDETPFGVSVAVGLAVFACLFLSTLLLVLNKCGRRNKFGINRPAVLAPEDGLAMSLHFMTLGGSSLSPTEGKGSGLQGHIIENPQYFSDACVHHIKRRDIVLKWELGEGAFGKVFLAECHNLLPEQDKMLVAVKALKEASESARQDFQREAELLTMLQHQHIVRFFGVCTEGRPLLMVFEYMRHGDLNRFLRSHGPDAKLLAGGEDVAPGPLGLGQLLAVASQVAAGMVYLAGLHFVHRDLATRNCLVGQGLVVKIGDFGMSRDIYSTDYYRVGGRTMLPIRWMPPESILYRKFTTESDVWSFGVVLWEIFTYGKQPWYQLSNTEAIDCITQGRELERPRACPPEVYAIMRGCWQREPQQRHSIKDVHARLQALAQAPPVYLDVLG

NCI-H460 (lung) = assay: Low folate & high folate in vitro proliferation assay (Alamar Blue); format: cell-based, human; conditions: for GI50: Homo sapiens
Experimental: Cells lines were acquired from cell banks, see supplemental material, grown using the cell banks recommended culture conditions (Supplemental Table 3). In some experiments noted “low folate” the cells were washed and grown in folate free RPMI-1640 media (Gibco #27016-021) supplemented with 5 ml 1 M Hepes, 5 ml 100 mM Na pyruvate, 2.5 mg/ml glucose and 10% defined FBS (Hyclone #SH30070) per 500 mL media for 5–7 days to deplete intracellular folate levels prior to the start of the experiment. Where noted, cells were maintained in complete “high folate” RPMI-1640 media (ATCC #30-2001) with 10% defined FBS to contrast with the low folate conditions.
Cells were cultured using recommended culture conditions unless noted otherwise (Supplemental Table 3). Cells were plated, dosed with compound and incubated at 37 °C for approximately 2 doubling times as determined for each cell line. Cell Titer Glo (Promega) assay was used to measure proliferation according to manufacturer’s recommendations by measuring luminescence with Flexstation3 (Molecular Devices) with 500 ms integration time. […] The % response was fit to a four-parameter logistic equation using ACTIVITYBASE 4.0 to determine the absolute IC50 values.
For a limited number of cell lines, compound dosing was performed under high or low folate conditions with cell viability being determined with Alamar Blue rather than an ATP dependent assay. Cells were plated and treated as described above. Proliferation was measured using Alamar Blue Cell Viability Reagent (Invitrogen), and read after approximately 1.5–4 hours incubation at 37 °C on the Envision plate reader (Perkin Elmer) with excitation at 570 nm and emission at 585 nm. The % inhibition for each sample was calculated and fit as described above.

CDK4 = target: T5, CDK4 (Homo sapiens, UniProt P11802); assay: CEREP protein kinase assay; format: biochemical
T5 construct: purchased CEREP Panlabs (Eurofins)
T5 sequence (P11802 whole entry): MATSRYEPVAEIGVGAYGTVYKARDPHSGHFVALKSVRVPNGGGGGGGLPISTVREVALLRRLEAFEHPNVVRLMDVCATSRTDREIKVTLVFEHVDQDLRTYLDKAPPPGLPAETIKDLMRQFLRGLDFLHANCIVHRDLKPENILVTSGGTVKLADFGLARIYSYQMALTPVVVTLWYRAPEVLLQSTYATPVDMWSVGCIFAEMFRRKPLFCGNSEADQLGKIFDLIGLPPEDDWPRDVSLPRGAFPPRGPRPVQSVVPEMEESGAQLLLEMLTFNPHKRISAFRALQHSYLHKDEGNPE
T5 sequence (P24385 whole entry partner): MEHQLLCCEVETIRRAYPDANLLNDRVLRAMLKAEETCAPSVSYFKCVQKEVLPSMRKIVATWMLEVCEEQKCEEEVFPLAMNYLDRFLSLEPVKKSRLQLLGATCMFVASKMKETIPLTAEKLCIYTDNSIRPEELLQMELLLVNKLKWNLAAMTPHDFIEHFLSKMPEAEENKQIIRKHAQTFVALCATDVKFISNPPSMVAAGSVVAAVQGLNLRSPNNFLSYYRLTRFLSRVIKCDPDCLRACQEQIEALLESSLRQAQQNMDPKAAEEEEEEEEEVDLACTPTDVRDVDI

MUSK = target: T6, MUSK (Homo sapiens, UniProt O15146); assay: CEREP protein kinase assay; format: biochemical
T6 construct: purchased CEREP Panlabs (Eurofins)
T6 sequence (O15146 24-869): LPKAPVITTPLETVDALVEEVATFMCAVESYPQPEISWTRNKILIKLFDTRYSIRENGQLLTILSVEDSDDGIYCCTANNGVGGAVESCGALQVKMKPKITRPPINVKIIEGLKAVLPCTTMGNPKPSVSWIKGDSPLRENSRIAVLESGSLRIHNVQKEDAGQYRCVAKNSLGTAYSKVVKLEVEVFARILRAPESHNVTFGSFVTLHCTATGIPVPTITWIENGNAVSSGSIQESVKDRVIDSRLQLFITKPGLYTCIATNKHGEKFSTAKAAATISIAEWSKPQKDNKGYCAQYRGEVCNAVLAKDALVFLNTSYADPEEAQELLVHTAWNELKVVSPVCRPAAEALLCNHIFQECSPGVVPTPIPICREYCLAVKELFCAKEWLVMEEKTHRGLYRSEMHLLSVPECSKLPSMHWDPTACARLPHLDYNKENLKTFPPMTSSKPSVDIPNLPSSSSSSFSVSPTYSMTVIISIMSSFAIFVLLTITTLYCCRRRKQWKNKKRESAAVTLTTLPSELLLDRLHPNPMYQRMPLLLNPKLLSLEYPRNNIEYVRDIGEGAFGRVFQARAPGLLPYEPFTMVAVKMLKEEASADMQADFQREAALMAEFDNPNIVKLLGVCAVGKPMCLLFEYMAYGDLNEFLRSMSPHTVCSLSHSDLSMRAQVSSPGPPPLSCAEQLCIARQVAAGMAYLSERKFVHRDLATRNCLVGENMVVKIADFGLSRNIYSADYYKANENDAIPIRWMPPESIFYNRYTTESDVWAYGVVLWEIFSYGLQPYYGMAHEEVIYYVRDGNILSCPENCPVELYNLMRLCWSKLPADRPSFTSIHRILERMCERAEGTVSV

CDK2 = target: T7, CDK2 (Homo sapiens, UniProt P24941); assay: CEREP protein kinase assay; format: biochemical
T7 construct: purchased CEREP Panlabs (Eurofins)

Which inhibition at 0.2 µM (MAPKAPK5; @ 0.2 uM) does the source give for `O=c1[nH]ccc2cc(F)c(NS(=O)(=O)c3ccc(N4CC[C@@H](O)C4)s3)cc12` [LSN3213128, N-(6-Fluoro-1-oxo-1,2-dihydroisoquinolin-7-yl)-5-[(3R)-3-hydroxypyrrolidin-1-yl]thiophene-2-sulfonamide] here?
Its inhibition at 0.2 µM is 3.51%.

What about the inhibition at 2 µM (MAPKAPK5; @ 2 uM) of the same molecule?
The inhibition at 2 µM was 13.3%.

And the inhibition at 20 µM (MAPKAPK5; @ 20 uM)?
Its inhibition at 20 µM is -3.2%.

What about the inhibition at 0.2 µM (IRAK1; @ 0.2 uM) of the same molecule?
Its inhibition at 0.2 µM is -0.781%.

What about the inhibition at 2 µM (IRAK1; @ 2 uM) of the same molecule?
Its inhibition at 2 µM is 4.26%.

And the inhibition at 20 µM (IRAK1; @ 20 uM)?
Its inhibition at 20 µM is 42.2%.

And the inhibition at 0.2 µM (NEK2; @ 0.2 uM)?
The inhibition at 0.2 µM was -9.52%.

And the inhibition at 2 µM (NEK2; @ 2 uM)?
Its inhibition at 2 µM is 5.24%.

And the inhibition at 20 µM (NEK2; @ 20 uM)?
The inhibition at 20 µM was -6.75%.

What about the inhibition at 0.2 µM (TRKA; @ 0.2 uM) of the same molecule?
Its inhibition at 0.2 µM is -1.15%.

And the inhibition at 2 µM (TRKA; @ 2 uM)?
The inhibition at 2 µM was 8.27%.

And the inhibition at 20 µM (TRKA; @ 20 uM)?
Its inhibition at 20 µM is 10.1%.

And the “anti-proliferative effects on hypoxanthine supplementation” value (NCI-H460 (lung); 32 μM hypoxanthine)?
The value was “completely rescued”.

What about the GI50 (NCI-H460 (lung); RPMI media, read-out: Alamar Blue GI50 Regular folate) of the same molecule?
The GI50 was 3470 ± 2090 nM.

And the GI50 (NCI-H460 (lung); low folate RPMI media, read-out: Alamar Blue GI50 Low folate)?
Its GI50 is 16.4 ± 5.1 nM.

And the inhibition at 0.2 µM (CDK4; @ 0.2 uM)?
Its inhibition at 0.2 µM is -1.51%.

And the inhibition at 2 µM (CDK4; @ 2 uM)?
The inhibition at 2 µM was 2.45%.

What about the inhibition at 20 µM (CDK4; @ 20 uM) of the same molecule?
Its inhibition at 20 µM is 37.2%.

And the inhibition at 0.2 µM (MUSK; @ 0.2 uM)?
Its inhibition at 0.2 µM is -4.24%.

And the inhibition at 2 µM (MUSK; @ 2 uM)?
The inhibition at 2 µM was 5.22%.

And the inhibition at 20 µM (MUSK; @ 20 uM)?
The inhibition at 20 µM was -2.74%.

And the inhibition at 0.2 µM (CDK2; @ 0.2 uM)?
The inhibition at 0.2 µM was -10.2%.

And the inhibition at 2 µM (CDK2; @ 2 uM)?
Its inhibition at 2 µM is -1.29%.

And the inhibition at 20 µM (CDK2; @ 20 uM)?
The inhibition at 20 µM was 29.2%.
